Patent US10065990B2, “Cyclic peptide compound, and preparation method, pharmaceutical composition and use thereof” (HANGZHOU GUANYU BIO-MEDICAL CO., LTD, priority 2013, dated 2018)
Where two headings read alike, the source gives them in different places.

Experiments:
HDAC11 = biological target: T1, HDAC11 (Homo sapiens, UniProt Q96DB2); test: HDAC biochemical activity measurement (fluorescent substrate deacetylation);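 further: HDAC11 enzyme acting on an acetyl-lysine fluorogenic substrate, then a developer frees the fluorophore, read at excitation 360 nm and emission 460 nm, IC50 over a compound dilution series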
T1 sequence (Q96DB2 1-347): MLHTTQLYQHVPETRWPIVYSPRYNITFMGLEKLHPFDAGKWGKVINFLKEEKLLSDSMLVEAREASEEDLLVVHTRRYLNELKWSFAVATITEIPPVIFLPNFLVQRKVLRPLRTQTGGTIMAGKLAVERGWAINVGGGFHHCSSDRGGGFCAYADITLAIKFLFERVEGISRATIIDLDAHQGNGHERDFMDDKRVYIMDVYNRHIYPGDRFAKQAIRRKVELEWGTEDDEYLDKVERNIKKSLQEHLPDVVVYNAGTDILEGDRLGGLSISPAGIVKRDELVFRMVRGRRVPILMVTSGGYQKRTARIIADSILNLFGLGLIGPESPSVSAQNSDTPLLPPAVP

HDAC7 = biological target: T2, HDAC7 (Homo sapiens, UniProt Q8WUI4); test: as above; conditions: HDAC7; 37° C. 30 minutes;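 further: fluorogenic deacetylation assay using acetyl-lysine substrate at 20 µM, enzyme and compound incubated 30 min at 37 °C, then developer added, fluorescence read at 360/460 nm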
T2 sequence (Q8WUI4 1-952): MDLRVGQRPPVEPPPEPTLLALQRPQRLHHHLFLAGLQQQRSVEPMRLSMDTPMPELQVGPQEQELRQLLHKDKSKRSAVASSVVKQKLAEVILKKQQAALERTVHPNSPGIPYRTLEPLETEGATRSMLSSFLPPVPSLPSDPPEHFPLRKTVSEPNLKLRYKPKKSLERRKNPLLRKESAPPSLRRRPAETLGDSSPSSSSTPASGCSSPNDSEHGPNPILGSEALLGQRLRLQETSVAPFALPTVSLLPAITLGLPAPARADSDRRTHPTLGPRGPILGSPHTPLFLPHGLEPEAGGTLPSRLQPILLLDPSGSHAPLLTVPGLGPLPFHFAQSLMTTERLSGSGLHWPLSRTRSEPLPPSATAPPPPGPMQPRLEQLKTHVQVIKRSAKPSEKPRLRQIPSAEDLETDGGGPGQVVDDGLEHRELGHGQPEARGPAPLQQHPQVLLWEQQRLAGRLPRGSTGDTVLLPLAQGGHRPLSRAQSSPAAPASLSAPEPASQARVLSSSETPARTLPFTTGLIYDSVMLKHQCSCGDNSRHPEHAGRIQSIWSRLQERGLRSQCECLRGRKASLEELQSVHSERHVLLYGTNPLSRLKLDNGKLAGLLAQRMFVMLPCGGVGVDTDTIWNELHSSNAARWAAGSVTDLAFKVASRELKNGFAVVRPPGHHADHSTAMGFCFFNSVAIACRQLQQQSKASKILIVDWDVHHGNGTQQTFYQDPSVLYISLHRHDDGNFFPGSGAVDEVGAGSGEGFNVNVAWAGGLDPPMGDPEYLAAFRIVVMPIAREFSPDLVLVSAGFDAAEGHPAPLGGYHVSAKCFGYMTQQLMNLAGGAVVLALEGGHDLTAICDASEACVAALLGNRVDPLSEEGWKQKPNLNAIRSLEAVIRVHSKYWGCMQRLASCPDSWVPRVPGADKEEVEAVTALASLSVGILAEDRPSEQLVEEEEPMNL

HDAC2 = HDAC2 (Homo sapiens, UniProt Q92769); test: as above; conditions: 37° C. 30 minutes;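 further: HDAC2 enzyme with an acetyl-lysine fluorescent substrate, then developer added, fluorescence read at excitation 360 nm and emission 460 nm, inhibition measured across several compound concentrations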
Chain of HDAC2 (Q92769 whole entry, species assumed): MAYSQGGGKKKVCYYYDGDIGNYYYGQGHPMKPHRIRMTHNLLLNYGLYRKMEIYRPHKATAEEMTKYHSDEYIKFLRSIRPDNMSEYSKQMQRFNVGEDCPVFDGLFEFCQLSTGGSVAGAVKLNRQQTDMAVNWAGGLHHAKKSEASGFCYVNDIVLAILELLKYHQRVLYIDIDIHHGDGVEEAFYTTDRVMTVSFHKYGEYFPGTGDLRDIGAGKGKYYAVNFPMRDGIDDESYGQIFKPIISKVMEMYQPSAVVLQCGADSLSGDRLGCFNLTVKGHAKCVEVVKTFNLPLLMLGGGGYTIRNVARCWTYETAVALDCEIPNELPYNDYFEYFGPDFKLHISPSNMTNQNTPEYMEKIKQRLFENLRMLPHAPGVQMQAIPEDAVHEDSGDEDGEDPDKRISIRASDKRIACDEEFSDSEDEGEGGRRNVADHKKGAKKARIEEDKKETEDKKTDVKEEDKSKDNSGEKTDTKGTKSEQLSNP
Method: The chemical activity of the compound is determined according to the degree of deacetylation inhibition of the HDAC enzyme. This experiment measured the degree of deacetylation related to tumor proliferation and metastasis of HDAC1, HDAC2, HDAC3, HDAC8, HDAC11 five subtypes HDAC enzymes. After the substrate containing an acetylated lysine side chain and HDAC enzyme are labeled with a fluorescent label, the fluorescent substrate is de acetyl. The fluorescent labeled substrate is cleaved by the enzyme, and the fluorescent substance is released, which generates 460 nm emission light under the excitation of 360 nm light.
HDAC substrate was diluted with reaction buffer to 200M (reaction concentration of 20M), the HDAC enzyme was diluted to the appropriate concentration, then added different concentrations of the test compounds and acted at 37° C. 30 minutes, and then added the same volume of 2-times concentration substrate developing solution (developer), incubated at room temperature for 15 minutes.

[1] = tested on: HCC827 (human non-small cell lung cancer cells); test: MTT cancer cell growth inhibition; assay type: cell-based; conditions: Homo sapiens, HCC827, 72 h, MTT, 72 hours incubation, HCC827 cells; read-out: GI50 HCC827
Procedure, shortened: (§1)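 Cells grown in DMEM or RPMI 1640 with 10% FBS were seeded at 1500/well and left overnight at 37° C., 5% CO2. Compounds at final 10^−5 to 10^−10 M were added in triplicate for 72 h. MTT was then added for 4 h, formazan dissolved in DMSO, and absorbance read at 570 nm to derive GI50.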

[2] = tested on: SGC-7901 (human gastric cancer cells); test: MTT cancer cell growth inhibition; assay type: cell-based; conditions: Homo sapiens, SGC-7901, 72 h, MTT, 72 hours incubation, SGC-7901 cells; read-out: GI50 SGC-7901
Procedure, shortened: as §1

[3] = tested on: K562 (human leukemia cells); test: MTT cancer cell growth inhibition; assay type: cell-based; conditions: Homo sapiens, K562, 72 h, MTT, 72 hours incubation, K562 cells; read-out: GI50 K562
Procedure, shortened: as §1

[4] = tested on: H1975 (non-small cell lung adenocarcinoma); test: MTT cancer cell growth inhibition; assay type: cell-based; conditions: Homo sapiens, NCI-H1975, 72 h, MTT, 72 hours incubation, H1975 cells; read-out: GI50 H1975
Procedure, shortened: as §1

[5] = tested on: HT1080 (human fibrosarcoma cells); test: MTT cancer cell growth inhibition; assay type: cell-based; conditions: Homo sapiens, HT-1080, 72 h, MTT
Procedure, shortened: as §1

[6] = tested on: KBM-5 (human chronic myelogenous leukemia); test: MTT cancer cell growth inhibition; assay type: cell-based; conditions: Homo sapiens, KBM5, 72 h, MTT, 72 hours incubation, KBM-5 cells; read-out: GI50 KBM-5
Procedure, shortened: as §1

[7] = tested on: KBM5-T315I (human chronic myelogenous leukemia); test: MTT cancer cell growth inhibition; assay type: cell-based; conditions: Homo sapiens, 72 h, MTT, 72 hours incubation, KBM5-T315I cells; read-out: GI50 KBM5-T315I
Procedure, shortened: as §1

[8] = tested on: N-87 (human gastric cancer cells); test: MTT cancer cell growth inhibition; assay type: cell-based; conditions: Homo sapiens, 72 h, MTT, 72 hours incubation, N-87 cells; read-out: GI50 N-87
Procedure, shortened: as §1

[9] = tested on: Hela (human cervical cancer cells); test: MTT cancer cell growth inhibition; assay type: cell-based; conditions: Homo sapiens, HeLa, 72 h, MTT
Procedure, shortened: as §1

[10] = tested on: MDA-MB-231 (breast cancer cells); test: MTT cancer cell growth inhibition; assay type: cell-based; conditions: Homo sapiens, MDA-MB-231, 72 h, read-out: GI50 MDA-MB-231, MTT, 72 hours incubation, MDA-MB-231 cells
Procedure, shortened: as §1

[11] = HT1080 cells, 72 hours incubation, read-out: GI50 HT1
[12] = Hela cells, 72 hours incubation, read-out: GI50 Hela
[13] = read-out: IC50 HDAC11, HDAC11, 37° C. 30 minutes
[14] = 72 hours incubation, read-out: GI50 HT1
[15] = 72 hours, present invention, read-out: GI50 HT1080, a
[16] = 72 hours incubation, read-out: GI50 Hela
[17] = 72 hours, present invention, read-out: GI50 Hela, a

Structure (SMILES) | IC50 (HDAC11) | IC50 HDAC7 (HDAC7) | IC50 (HDAC2) | GI50 [1] | GI50 [2] | GI50 [3] | GI50 [4] | GI50 [5, 11] | GI50 [6] | GI50 [7] | GI50 [8] | GI50 [9, 12] | GI50 [10] | IC50 (HDAC11; [13]) | GI50 [5, 14] | GI50 [5, 15] | GI50 [9, 16] | GI50 [9, 17]
C/C=C1\NC(=O)c2ccc(SC)c(n2)CNC(=O)C[C@@H](/C=C/CCSC(C)=O)OC(=O)[C@H](CC)NC1=O [Compound 179] | 92 nM | no activity | 51 nM | 25 nM | 19 nM | 71 nM | 54 nM | 40 nM | 61 nM | 28 nM | 73 nM | 30 nM | 51 nM | – | – | – | – | –
C/C=C1\NC(=O)c2cc(SC)cc(n2)CNC(=O)C[C@@H](/C=C/CCSC(C)=O)OC(=O)[C@H](CCCCN)NC1=O [Compound 193] | 93 nM | no activity | 25 nM | 18 nM | 73 nM | 35 nM | 11 nM | 10 nM | 31 nM | 41 nM | 23 nM | 430 nM | 43 nM | – | – | – | – | –
C/C=C1\NC(=O)c2cccc(n2)CNC(=O)C[C@@H](/C=C/CCSC(C)=O)OC(=O)[C@H](C(C)C)NC1=O [Compound 7] | – | no activity | 17 nM | 54 nM | 35 nM | 41 nM | 34 nM | – | 49 nM | 52 nM | 29 nM | – | 91 nM | 11 nM | 20 nM | 27 nM | 40 nM | 40 nM
C/C=C1\NC(=O)c2cccc(n2)CCNC(=O)C[C@@H](/C=C/CCS)OC(=O)[C@H](C(C)C)NC1=O [Compound 146] | 97 nM | no activity | 34 nM | 45 nM | 35 nM | 43 nM | 73 nM | – | 33 nM | 23 nM | 23 nM | – | 56 nM | – | 80 nM | – | 40 nM | –
C/C=C1\NC(=O)c2nc(ccc2SCCC)CNC(=O)C[C@@H](/C=C/CCSC(=O)CCCCCCC)OC(=O)[C@H](CC)NC1=O [Compound 174] | 98 nM | no activity | 32 nM | 46 nM | 26 nM | 13 nM | 57 nM | 10 nM | 15 nM | 96 nM | 31 nM | 20 nM | 16 nM | – | – | – | – | –
CCCCCCCC(=O)SCC/C=C/[C@@H]1CC(=O)NCc2cccc(n2)C(=O)NC(CC)C(=O)N[C@@H](C(C)C)C(=O)O1 (stereo partly shown) [Compound 245] | – | no activity | 74 nM | 96 nM | 63 nM | 83 nM | 28 nM | 650 nM | 11 nM | 12 nM | 53 nM | 530 nM | 65 nM | 126 nM | – | 650 nM | – | 530 nM
